# In PMC4594923, “Food Polyphenols Fail to Cause a Biologically Relevant Reduction of COX-2 Activity” (PLoS ONE, 2015):
# Marks after values point to notes of the source that are not given here.
# Experiments:
# [1] = test system: arachidonic acid (AA) cascade; assay: plasma oxylipin/PG levels in LPS induced sepsis in mice; assay type: in vivo, C57BL/6N mice; conditions: plasma 24 h after LPS treatment; LPS +; mean;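 also: male C57BL/6N mice given LPS, plasma oxylipins quantified by LC-MS after solid-phase extraction, pretreatment or vehicle given intraperitoneally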
# Excerpt: (§1) Twelve week old male C57BL/6N mice (Charles River, Sulzfeld, Germany) were used for all experiments. C57BL/6 male mice (H2^b, 11–13 weeks of age) were obtained from Charles River (Sulzfeld, Germany). Animals were cared for in accordance with the institution’s guidelines for experimental animals and with the guidelines of the American Physiological Society. […] Mice were monitored closely and if they appeared compromised (i.e. inactivity, no intake of food or water) after compound or LPS injection the experiment was terminated.
# (§2) Oxylipin levels were analyzed in plasma and tissues by LC-MS following SPE extraction of 200 μl plasma or tissue homogenate (50 mg) on Chromabond C18 ec cartridges (Machery-Nagel, Düren, Germany) [19].
# (§3) GraphPad Prism 5.0 (GraphPad Software, San Diego, USA) was used for data analysis, the fitting of dose response curves and calculation of the IC50 values. Statistical differences were determined by Dunnetts test (LPS vs. other groups).
# [2] = test system: arachidonic acid (AA) cascade; assay: kidney tissue oxylipin/PG levels in LPS induced sepsis in mice; conditions: kidney tissue 24 h after LPS treatment, LPS +, mean;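 also: male C57BL/6N mice challenged with LPS, kidney taken 24 h later, oxylipins quantified by LC-MS after solid-phase extraction of tissue homogenate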
# Excerpt: as §1, §2, §3
smiles,measurement,setting,value
"O=c1c(-c2ccc(O)cc2)coc2cc(O)cc(O)c12 [Genistein, genistein]","1a,1b-dihomo-PGF2α concentration in plasma",[1],0.33 nM
same,"4,5-DiHDPE concentration in plasma",[1],10 nM
same,4-HDHA concentration in plasma,[1],2.0 nM
same,5(6)-EpETrE concentration in plasma,[1],8.9 nM
same,"5,6-DiHETrE concentration in plasma",[1],0.72 nM
same,5-HEPE concentration in plasma,[1],0.33 nM
same,5-HETE concentration in plasma,[1],3.1 nM
same,5-iPF2α concentration in plasma,[1],< 0.50 nM
same,5-oxo-ETE concentration in plasma,[1],1.2 nM
same,6-keto-PGF1α concentration in plasma,[1],2.4 nM
same,"7,8-DiHDPE concentration in plasma",[1],1.1 nM
same,7-HDHA concentration in plasma,[1],0.64 nM
same,8(9)-EpETrE concentration in plasma,[1],2.3 nM
same,"8,9-DiHETrE concentration in plasma",[1],2.1 nM
same,8-HDHA concentration in plasma,[1],4.0 nM
same,8-HEPE concentration in plasma,[1],0.72 nM
same,8-HETE concentration in plasma,[1],9.6 nM
same,8-iPF2a concentration in plasma,[1],0.24 nM
same,9(10)-EpODE concentration in plasma,[1],3.5 nM
same,9(10)-EpOME concentration in plasma,[1],37 nM
same,9(10)-Epoxystearic acid concentration in plasma,[1],31 nM
same,"9,10,13-TriHOME concentration in plasma",[1],1.5 nM
same,"9,10-DiHODE concentration in plasma",[1],4.8 nM
same,"9,10-DiHOME concentration in plasma",[1],63 nM
same,"9,10-Dihydroxystearic acid concentration in plasma",[1],15 nM
same,"9,12,13-TriHOME concentration in plasma",[1],9.6 nM
same,9-HODE concentration in plasma,[1],96 nM
same,9-HOTrE concentration in plasma,[1],4.1 nM
same,9-oxo-ODE concentration in plasma,[1],16 nM
same,10(11)-EpDPE concentration in plasma,[1],3.0 nM
same,"10,11-DiHDPE concentration in plasma",[1],0.90 nM
same,10-HDHA concentration in plasma,[1],16 nM
same,11(12)-EpETrE concentration in plasma,[1],2.7 nM
same,"11,12-DiHETE concentration in plasma",[1],0.19 nM
same,"11,12-DiHETrE concentration in plasma",[1],1.9 nM
same,11-HDHA concentration in plasma,[1],1.2 nM
same,11-HETE concentration in plasma,[1],2.7 nM
same,12(13)-EpODE concentration in plasma,[1],1.8 nM
same,12(13)-EpOME concentration in plasma,[1],34 nM
same,"12,13-DiHODE concentration in plasma",[1],4.7 nM
same,"12,13-DiHOME concentration in plasma",[1],214 nM
same,12-HEPE concentration in plasma,[1],140 nM
same,12-HETE concentration in plasma,[1],1200 nM
same,13(14)-EpDPE concentration in plasma,[1],2.0 nM
same,"13,14-DiHDPE concentration in plasma",[1],0.96 nM
same,"13,14-dihydro-15-keto-PGE1 concentration in plasma",[1],0.18 nM
same,"13,14dihydro-15-keto-PGF2α concentration in plasma",[1],0.43 nM
same,13-HDHA concentration in plasma,[1],2.8 nM
same,13-HODE concentration in plasma,[1],240 nM
same,13-HOTrE concentration in plasma,[1],15 nM
same,13-oxo-ODE concentration in plasma,[1],2.7 nM
same,14(15)-EpETE concentration in plasma,[1],0.21 nM
same,14(15)-EpETrE concentration in plasma,[1],2.0 nM
same,"14,15-DiHETE concentration in plasma",[1],0.41 nM
same,"14,15-DiHETrE concentration in plasma",[1],4.3 nM
same,14-HDHA concentration in plasma,[1],450 nM
same,15(16)-EpODE concentration in plasma,[1],2.0 nM
same,15(S)-HETrE concentration in plasma,[1],2.7 nM
same,"15,16-DiHODE concentration in plasma",[1],40 nM
same,15-HEPE concentration in plasma,[1],0.96 nM
same,15-HETE concentration in plasma,[1],5.1 nM
same,15-oxo-ETE concentration in plasma,[1],0.42 nM
same,16(17)-EpDPE concentration in plasma,[1],2.1 nM
same,"16,17-DiHDPE concentration in plasma",[1],2.2 nM
same,16-HDHA concentration in plasma,[1],1.9 nM
same,17(18)-EpETE concentration in plasma,[1],1.2 nM
same,"17,18-DiHETE concentration in plasma",[1],2.3 nM
same,17-HDHA concentration in plasma,[1],21 nM
same,18-HEPE concentration in plasma,[1],0.45 nM
same,19(20)-EpDPE concentration in plasma,[1],14 nM
same,"19,20-DiHDPE concentration in plasma",[1],19 nM
same,20-HDHA concentration in plasma,[1],3.7 nM
same,20-HEPE concentration in plasma,[1],2.8 nM
same,20-HETE concentration in plasma,[1],1.7 nM
same,EKODE concentration in plasma,[1],9.9 nM
same,PGD2 concentration in plasma,[1],< 0.50 nM
same,PGE2 concentration in plasma,[1],0.95 nM
same,PGF1α concentration in plasma,[1],0.13 nM
same,PGF2α concentration in plasma,[1],0.44 nM
same,TXB2 concentration in plasma,[1],2.6 nM
same,"1a,1b-dihomo-PGF2α",[2],1.9 nM
same,"4,5-DiHDPE",[2],15 nM
same,4-HDHA,[2],28^† nM
same,5(6)-EpETrE,[2],140^† nM
same,"5,6-DiHETrE",[2],1.8^† nM
same,5-HEPE,[2],1.3 nM
same,5-HETE,[2],15^† nM
same,5-oxo-ETE,[2],45 nM
same,6-keto-PGF1α,[2],61 nM
same,"7,8-DiHDPE",[2],2.0^* nM
same,7-HDHA,[2],4.0^* nM
same,8(9)-EpETrE,[2],34^‡ nM
same,"8,9-DiHETrE",[2],1.9 nM
same,8-HDHA,[2],23^‡ nM
same,8-HETE,[2],4.9 nM
same,8-iPF2a,[2],2.0 nM
same,9(10)-EpODE,[2],14 nM
same,9(10)-EpOME,[2],170^* nM
same,9(10)-Epoxystearic acid,[2],75^* nM
same,"9,10,13-TriHOME",[2],4.3 nM
same,"9,10-DiHODE",[2],1.6 nM
same,"9,10-DiHOME",[2],31 nM
same,"9,10-Dihydroxystearic acid",[2],50 nM
same,"9,12,13-TriHOME",[2],24 nM
same,9-HETE,[2],4.3^† nM
same,9-HODE,[2],280 nM
same,9-HOTrE,[2],5.0 nM
same,9-oxo-ODE,[2],65 nM
same,10(11)-EpDPE,[2],71^† nM
same,"10,11-DiHDPE",[2],2.4 nM
same,10-HDHA,[2],4.3 nM
same,11(12)-EpETE,[2],4.0 nM
same,11(12)-EpETrE,[2],82^† nM
same,"11,12-DiHETrE",[2],2.8 nM
same,11-HDHA,[2],7.7^† nM
same,11-HETE,[2],18 nM
same,12(13)-EpODE,[2],8.1^* nM
same,12(13)-EpOME,[2],120^* nM
same,"12,13-DiHOME",[2],78 nM
same,12-HEPE,[2],2.2 nM
same,12-HETE,[2],21 nM
same,13(14)-EpDPE,[2],56^† nM
same,"13,14-DiHDPE",[2],5.0 nM
same,"13,14-dihydro-15-keto-PGF2α",[2],3.1 nM
same,13-HDHA,[2],9.1^* nM
same,13-HODE,[2],230 nM
same,13-HOTrE,[2],6.0 nM
same,13-oxo-ODE,[2],11 nM
same,14(15)-EpETE,[2],4.7^† nM
same,14(15)-EpETrE,[2],57^* nM
same,"14,15-DiHETE",[2],1.1 nM
same,"14,15-DiHETrE",[2],8.5 nM
same,14-HDHA,[2],14 nM
same,15(16)-EpODE,[2],56^† nM
same,15(S)-HETrE,[2],6.4 nM
same,"15,16-DiHODE",[2],26 nM
same,15-HETE,[2],31^* nM
same,15-oxo-ETE,[2],12^* nM
same,16(17)-EpDPE,[2],52^† nM
same,"16,17-DiHDPE",[2],15 nM
same,16-HDHA,[2],9.1 nM
same,17(18)-EpETE,[2],5.7^† nM
same,"17,18-DiHETE",[2],4.4 nM
same,17-HDHA,[2],22 nM
same,18-HEPE,[2],2.0^* nM
same,19(20)-EpDPE,[2],88^† nM
same,"19,20-DiHDPE",[2],100 nM
same,20-HDHA,[2],25^* nM
same,20-HEPE,[2],5.9 nM
same,EKODE,[2],58 nM
same,PGD2,[2],9.6 nM
same,PGE1,[2],6.3 nM
same,PGE2,[2],110 nM
same,PGF1α,[2],3.7 nM
same,PGF2α,[2],40 nM
same,TXB2,[2],3.2^* nM
same,"5,6-DiHETE",[2]; < = below LOQ,< 0.25 nM
same,5-iPF2α,[2]; < = below LOQ,< 1.0 nM
same,8(9)-EpETE,[2]; < = below LOQ,2.8^† nM
same,"12,13-DiHODE",[2]; < = below LOQ,< 2.0 nM
same,"13,14-dihydro-15-keto-PGE1",[2]; < = below LOQ,0.5 nM
same,20-HETE,[2]; < = below LOQ,< 2.7 nM
same,PGD1,[2]; < = below LOQ,< 0.50 nM
same,PGF2α,[2]; second listing of PGF2α (r9),40 nM
